# According to patent US5639782A, “Neolignan derivatives as platelet activating factor receptor antagonists and 5-lipoxygenase inhibitors” (Center for Innovative Technology, priority 1994, dated 1997):
# Entries after “also recorded” stand apart in the source; their conditions may differ. Read-outs that look alike come from different tables or passages of the source.
# Legend:
# PAF receptor = settings: literature report; cited from earlier work
# [1] = tested on: PAF induced platelet aggregation (human platelets); experiment: PAF induced platelet aggregation assay; assay type: cell-based; settings: for PAF antagonist activity (in words): in vitro
# Protocol: In vitro experiments have been conducted to determine the PAF and 5-lipoxygenase inhibitory activity of a variety of synthesized, neolignan derivative compounds. In particular, the novel compounds are either 2,4-diaryl-1,3-dithiolanes or futoenone derivatives. PAF antagonist activity was determined according to the method of Shen et al., in Methods of Ezymology, Vol. 187, 447-449 (1990), and that article is herein incorporated by reference. The 5-lipoxygenase inhibitory activity was determined according to an assay discussed below.
# The following outlines a platelet aggregation assay procedure. Blood is obtained from human volunteers who have not ingested aspirin or steroid drugs for ten days and is stored with a 3.8% trisodium citrate anticoagulant. Heparin is not used as the anticoagulant since it interferes with platelet aggregation. Citrated blood is centrifuged at 220 g for 10 min. at room temperature to obtain platelet-rich plasma (PRP). The platelet count is determined and is adjusted to […]. Platelet-poor plasma (PPP) is prepared by centrifuging PRP at 1000 g for 20 min. to pelletize the platelets. PPP is used to calibrate the aggregometer. Washed platelet suspension (WPS) is prepared from PRP by underlayering the latter with Ficoll-Paque (9:2, v/v) and centrifuging at 750 g for 15 min. at room temperature. The platelets form a band between the plasma and the separation medium and are carefully collected and suspended in Tyrode's solution (in mM: NaCl, 137; KCl, 2.7; NAHCO3, 11.9; NaH2 -PO4, 0.42; MgCl2, 1.0; CaCl2, 1.0; HEPES, 5.0; and dextrose, 1 g/liter, with 0.25% BSA, w/v, pH 7.4). Prostacyclin (PGI2) (1 ng/ml) can be added to the suspension to prevent platelet activation; however, it should be understood that the inhibitory activity of PGI2 disappears completely 10 min. from the time of addition at room temperature. The suspension is then spun at 1000 g for 10 min. and the pellet is resuspended in Tyrode's buffer for platelet aggregation. The suspensions are maintained at 37° C. and stirred constantly at 1000 revolutions per min (rpm). A known amount of PAF, such as 0.11 μM PAF, is added to the suspension three to five minutes after the addition of the potential PAF antagonists (the synthesized compounds). […] To obtain the IC50 value, varying concentrations of a potential antagonist need to be added to the test suspensions with the percentage inhibition being determined for each concentration of the antagonist, and the IC50 value is obtained from a plot of the percentage inhibition versus concentration of the antagonist.
# [2] = PAF induced platelet aggregation
SMILES,PAF receptor antagonism (in words) (PAF receptor),"PAF antagonist activity (in words) [1, 2]",also measured
"COc1cc(C2CCC(c3cc(OC)c(OC)c(OC)c3)O2)cc(OC)c1OC [L-652,731]",potent PAF receptor antagonists,,
"CCCOc1c(OC)cc(C2CCC(c3cc(OC)c(OC)c(OC)c3)O2)cc1S(C)(=O)=O [L-659,989]",potent PAF receptor antagonists,,
"COc1cc(C2CSC(c3cc(OC)c(OC)c(OC)c3)S2)cc(OC)c1OC (stereo not drawn) [compound 1, Cis and trans-2,4-bis-(3,4,5-trimethoxyphenyl)-1,3-dithiolane]",,,"IC50 ([1]; Homo sapiens, PAF induced platelet aggregation, read-out: IC50 value, PAF-induced platelet aggregation): < 1 µM"
COC1=C[C@]23C[C@H](C[C@H](c4ccc5c(c4)OCO5)[C@H]2C)OC3=CC1=O [futoenone],,posesses PAF antagonist activity; also recorded: potent PAF antagonist activity,"IC50 ([1]; human platelet assay in PRP, 0.1 μM PAF, read-out: IC50 value for platelet aggregation induced by 0.1 μM PAF): ~13.6 µM"
C=CCC1=C[C@@]2(OC)C(=CC1=O)O[C@H](c1ccc(OC)c(OC)c1)[C@H]2C [kadsurenone],"potent, specific and competitive inhibitor of PAF at the receptor level",,
COc1cc(C2CSC(c3cc(OC)c(OC)c(OC)c3)O2)cc(OC)c1OC (stereo not shown) [oxathiolane (F')],,much weaker antagonist of PAF-induced platelet aggregation than the corresponding dithiolane compound,
